Data reported in BindingDB's records for doi:10.7270/Q2MK6B9H (Nmmlsc, 2009).

Target: Ras-related protein Rab-7a (Canis lupus familiaris, UniProt P18067)
Experiment: inhibition of fluorescent GTP loading on Rab7 – biochemical, dog Rab7, bead multiplex flow cytometry, Bodipy-FL-GTP, pyrazoline series, SAR follow-up (AID 2041)
[1] = inactive by the depositor's call

Sequence of Ras-related protein Rab-7a (P18067 whole entry): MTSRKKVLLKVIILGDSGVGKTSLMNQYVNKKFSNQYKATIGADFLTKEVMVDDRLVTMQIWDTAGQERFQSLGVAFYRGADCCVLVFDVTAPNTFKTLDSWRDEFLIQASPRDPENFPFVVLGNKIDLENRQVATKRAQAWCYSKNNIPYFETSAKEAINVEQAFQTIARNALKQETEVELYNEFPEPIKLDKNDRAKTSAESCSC

An EC50 greater than 30 µM was found for Cc1onc(-c2ccccc2)c1-c1ccc(S(N)(=O)=O)cc1 in this work.

An EC50 greater than 30 µM was found for O=[N+]([O-])c1ccc([N+]2=N[C-](c3ccccc3)CC2c2ccccc2)cc1 (configuration not stated) in this work.

An EC50 greater than 30 µM was found for Brc1ccc(N2N=C(c3ccccc3)CC2c2ccccc2)cc1 (configuration not stated) in this work.

An EC50 greater than 30 µM was found for COc1ccccc1C1CC(c2ccccc2)=NN1c1ccccc1 (configuration not stated) in this work.

An EC50 greater than 30 µM was found for Clc1cccc(N2N=C(c3ccccc3)CC2c2ccccc2)c1 (configuration not stated) in this work.

An EC50 [1] of 6.64 µM was found for Clc1ccc(N2N=C(c3ccccc3)CC2c2ccccc2)cc1 (configuration not stated) in this work.

An EC50 greater than 30 µM was found for CC(=O)Oc1ccc(C2=NN(c3ccccc3)C(c3ccccc3)C2)cc1 (configuration not stated) in this work.

An EC50 greater than 30 µM was found for O=C(O)c1ccc(N2N=C(c3ccccc3)CC2c2ccccc2)cc1 (configuration not stated) in this work.

An EC50 greater than 30 µM was found for COc1ccc(C2=NN(c3ccccc3)C(c3ccccc3C(F)(F)F)C2)cc1 (configuration not stated) in this work.

An EC50 [1] of 0.508 µM was found for O=S(=O)(c1ccc(N2N=C(c3ccccc3)CC2c2ccccc2)cc1)C(F)F (configuration not stated) in this work.

An EC50 greater than 30 µM was found for NS(=O)(=O)c1ccc(N2N=C(c3ccc(Cl)cc3)CC2c2ccccc2)cc1 (configuration not stated) in this work.

An EC50 greater than 30 µM was found for CCc1ccc(C2=NN(c3ccc(S(N)(=O)=O)cc3)C(c3ccc(F)cc3)C2)cc1 (configuration not stated) in this work.

An EC50 greater than 30 µM was found for CN(C)c1ccc(C2C[C-](c3ccccc3)N=[N+]2c2ccc([N+](=O)[O-])cc2)cc1 (configuration not stated) in this work.

An EC50 of 22.5 µM was found for COc1ccc(C2CC(c3ccc(F)cc3)=NN2c2cccc(F)c2)cc1OC (configuration not stated) in this work.

An EC50 greater than 30 µM was found for COc1ccc(C2CC(c3ccccc3)=NN2c2ccc(Cl)c(C(=O)O)c2)cc1 (configuration not stated) in this work.

An EC50 greater than 30 µM was found for COc1ccc(C2CC(c3ccc(Cl)cc3)=NN2c2ccc(S(N)(=O)=O)cc2)cc1 (configuration not stated) in this work.

An EC50 greater than 30 µM was found for Cc1ccc(C2CC(c3ccccc3)=NN2c2ccc(S(N)(=O)=O)cc2)cc1 (configuration not stated) in this work.

An EC50 greater than 30 µM was found for Cc1cccc(C2CC(c3ccccc3)=NN2c2ccc(S(N)(=O)=O)cc2)c1 (configuration not stated) in this work.

An EC50 greater than 30 µM was found for COc1ccc(C2CC(c3ccccc3OC)=NN2c2ccc(S(N)(=O)=O)cc2)cc1 (configuration not stated) in this work.

An EC50 greater than 30 µM was found for COc1ccc(C2CC(c3ccc(C)cc3)=NN2c2ccc(S(N)(=O)=O)cc2)cc1 (configuration not stated) in this work.

An EC50 greater than 30 µM was found for COc1ccc(C2CC(c3cccc(C(F)(F)F)c3)=NN2c2ccc(S(N)(=O)=O)cc2)cc1 (configuration not stated) in this work.

An EC50 greater than 30 µM was found for COc1ccc(C2CC(c3cccc(N(C)C)c3)=NN2c2ccc(S(N)(=O)=O)cc2)cc1 (configuration not stated) in this work.

An EC50 greater than 30 µM was found for COc1ccc(C2CC(c3cccnc3)=NN2c2ccc(S(N)(=O)=O)cc2)cc1 (configuration not stated) in this work.

An EC50 greater than 30 µM was found for COc1ccc(C2CC(c3ccncc3)=NN2c2ccc(S(N)(=O)=O)cc2)cc1 (configuration not stated) in this work.

An EC50 greater than 30 µM was found for Fc1ccccc1C1CC(c2ccc(Br)cc2)=NN1c1ccc(Br)cc1 (configuration not stated) [2,5-bis(4-bromophenyl)-3-(2-fluorophenyl)-3,4-dihydropyrazole] in this work.

An EC50 of 11.1 µM was found for COc1ccc(C2CC(c3ccc(F)cc3)=NN2c2cc(Cl)ccc2Cl)cc1 (configuration not stated) [2-(2,5-dichlorophenyl)-5-(4-fluorophenyl)-3-(4-methoxyphenyl)-3,4-dihydropyrazole] in this work.

An EC50 greater than 30 µM was found for COc1ccc(C2=NN(c3ccc(Cl)c(Cl)c3)C(c3ccc(OC)cc3)C2)cc1 (configuration not stated) [2-(3,4-dichlorophenyl)-3,5-bis(4-methoxyphenyl)-3,4-dihydropyrazole] in this work.

An EC50 greater than 30 µM was found for Fc1ccc(C2=NN(c3cccc(Br)c3)C(c3ccccc3)C2)cc1 (configuration not stated) [2-(3-bromophenyl)-5-(4-fluorophenyl)-3-phenyl-3,4-dihydropyrazole] in this work.

An EC50 [1] of 0.104 µM was found for COc1ccc(C2=NN(c3cccc(F)c3)C(c3ccc(OC)cc3)C2)cc1 (configuration not stated) [2-(3-fluorophenyl)-3,5-bis(4-methoxyphenyl)-3,4-dihydropyrazole] in this work.

An EC50 greater than 30 µM was found for COc1ccc(C2CC(c3ccccc3)=NN2c2ccc(Cl)c(C(=O)O)c2)cc1OC (configuration not stated) [2-chloro-5-[3-(3,4-dimethoxyphenyl)-5-phenyl-3,4-dihydropyrazol-2-yl]benzoic acid] in this work.

An EC50 greater than 30 µM was found for COc1ccc(C2=NN(c3cccc(F)c3)C(c3ccc(Cl)cc3)C2)cc1 (configuration not stated) [3-(4-chlorophenyl)-2-(3-fluorophenyl)-5-(4-methoxyphenyl)-3,4-dihydropyrazole] in this work.

An EC50 greater than 30 µM was found for COc1ccc(C2C[C-](c3ccccc3)N=[N+]2c2ccc([N+](=O)[O-])cc2)cc1 (configuration not stated) [3-(4-methoxyphenyl)-2-(4-nitrophenyl)-5-phenyl-3,4-dihydropyrazole] in this work.
